Patent US6555114B1, “Immunodominant human T-cell epitopes of hepatitis C virus” (Innogenetics N.V., priority 1993, dated 2003)

Columns and labels:
[1] = test system: PBMC from 32 patients with chronic HCV; experiment: T cell proliferation assay ((3H)-thymidine incorporation, stimulation index) with PBMC of chronic HCV patients; assay type: cell-based, human
[2] = test system: PBMC's from 18 healthy control subjects; experiment: T cell proliferation assay with PBMC of healthy control subjects; assay type: cell-based, human; details: 17 control subjects, 23 proliferation assays
Method: As controls for the specificity of the lymphoproliferative responses, 18 healthy individuals aged 25-58 years (mean 38.6), 10 males and 8 females were selected. These subjects were negative for HCV antibodies and HCV-RNA.
The medium used for all cell cultures consisted of RPMI 1640 supplemented with 25 mM HEPES, 2 mM L-glutamine, 50 U/ml penicillin and 50 μg/ml streptomycin (all from Gibco Europe, Gent, Belgium), 5×10^−5 M 2-mercaptoethanol (Sigma, St. Louis, Mo.) and 10% heat-inactivated pooled human AB serum. This AB serum was obtained from healthy blood donors with blood group AB^+ and was only used when antibodies to HCV and HCV-RNA were absent. This “complemented” RPMI 1640 medium will hereafter be designated “complete medium”.
PBMC were isolated from heparinized venous blood by isopycnic density centrifugation on Ficoll Hypaque (Lymphoprep, Nyegaard, Denmark) and suspended in complete medium. […] PBMC in 200 μl of complete medium were cultured in 96 well round-bottomed microplates (Falcon Plastics) in the absence (unstimulated controls) or presence of varying concentrations of antigens for 5 days at 37° C. in an atmosphere of 5% CO2 in air. 0.5 μCi (^3H)-thymidine was then added to each well and 16 to 20 h later the cultures were harvested onto glass fiber filters using a multichannel cell harvester (PHD, Cambridge, Mass.) to measure the incorporation of (^3H)-thymidine by liquid scintillation counting in an LKB-Wallac 8100 counter (LKB, Bromma, Sweden). Results are expressed as stimulation index (SI; mean cpm of antigen-stimulated cultures/mean cpm of control cultures). Proliferation was considered positive when stimulation index was >3. In some figures the results are expressed as cpm (mean cpm of antigen-stimulated cultures—mean cpm of control cultures). Standard deviations of the mean cpm of triplicate cultures were consistently below 10%.
To analyze and summarize the results of 135 assays performed in the 32 HCV patients, we have chosen to consider the response of an individual patient to a particular antigen preparation (peptide pools 1 to 9, NS1-5*, NS1-7* or NS3 protein) as significant when it induces SI's 3 in at least half of the assays performed. The results shown in Table 4 have been obtained using this scoring method. […] The start of the Interferon therapy serves as the reference point, week 0. None of the patients responded to all the antigens. PBMC's from 13 of 18 (72%) clinical responders and 12 of 14 (85%) non-responders proliferated in response to at least one antigen preparation. All but one antigen preparation, peptide pool 8, induced a proliferative response in at least one subject. The most frequent responses were to peptide pools 2 and 3. Whereas both interferon-responders and non-responders proliferated equally well to peptide pool 2 (56% and 57%, respectively), non-responders reacted less well to peptide pool 3 (29% or 4 of 14) than responders (44% or 8 of 18). […] Clinical non-responders to interferon therapy also reacted more frequently (57 or 8 of 14) upon stimulation with the NS3 protein than responders (24% or 4 of 17). However, none of these differences in proliferative response rates to peptide pools 3, 5 and 9 or to NS3 protein reached statistical significance ([…] in ^2-test). […] Indeed, 8 of 17 responders recognized one or both peptides while none of the non-responders did so. A summary of the results of all these proliferation assays is provided in FIG. 2, in which the response rates of the HCV patients as well as 18 healthy control subjects towards the 12 antigen preparations. Indeed, to establish the relevance of the proliferative responses observed in HCV patients, PBMC's from 18 healthy control subjects were stimulated with the same antigen preparations. Overall, 27 assays were performed: a single assay in 10 subjects, two in 7 volunteers and 3 in one individual. In 12 control subjects none of the antigens induced a proliferative response. […]

[3] = patient 626, αIFN responder (R), week 14 of αIFN therapy
[4] = patient 627, αIFN non-responder (NR), week 54 of αIFN therapy
[5] = patient 636, αIFN responder (R), week 28 of αIFN therapy
[6] = patient 637, αIFN non-responder (NR), week 45 of αIFN therapy

Sequence | stimulation index (SI), T-cell recognition ([1]; patient 620, αIFN non-responder (NR), week 20 of αIFN therapy) | stimulation index (SI), T-cell recognition [1, 3] | stimulation index (SI), T-cell recognition [1, 4] | stimulation index (SI), T-cell recognition [1, 5] | stimulation index (SI), T-cell recognition [1, 6] | lymphoproliferative response (LPR) to peptide pools and single peptides ([1]; patient 639, IFN responder, LPR to pools 2 and/or 3, pools 4 assays, single peptides 2 assays) | number of control subjects that recognized the single peptide [2] | share of control subjects that recognized the single peptide [2] [%]
LLSCLTVPASAYQVRNSTGL [C31] | — (Only SI equal or greater than 3 are shown.) | — (Only SI equal or greater than 3 are shown.) | — (Only SI equal or greater than 3 are shown.) | — (Only SI equal or greater than 3 are shown.) | — (Only SI equal or greater than 3 are shown.) | + (significant when it induces SI's 3 in at least half of the assays performed) | 1 | 6
LLSPRGSRPSWGPTDPRRRS (hepatitis C virus) [C17] | – | — (Only SI equal or greater than 3 are shown.) | — (Only SI equal or greater than 3 are shown.) | — (Only SI equal or greater than 3 are shown.) | — (Only SI equal or greater than 3 are shown.) | – | 2 | 12
